According to patent US20240327392A1, “HETEROCYCLOALKYL-SUBSTITUTED POLYHETEROAZOLE DERIVATIVES AS MEDICAMENTS FOR TREATING AND/OR PREVENTING RS VIRUS INFECTIONS” (ALBIUS SCIENCES ALPHA PRIVATE LIMITED, priority 2021, published 2024):

System: human RS virus A2 strain
Experiment: In vitro test for anti-RS virus proliferation inhibitory activity (quantitative RT-PCR of RS virus RNA copy number in infected Vero cells)
Type: cell-based
Conditions: 72 h; Vero cells infected with human RS virus A2 strain, 3 days of incubation, RS virus N gene RNA copy number by quantitative RT-PCR; read-out: Anti-RS virus Activity
Procedure: A mixture of Vero cells (3.4×10^5 cells/mL) and human RS virus A2 strain (1.7×10^4 TCID50/mL) (EMEM medium supplemented with 10% FCS) was added to a 96-well plate at 50 μL/well, and the 10% FCS-supplemented EMEM medium adjusted to the desired final concentration of the compounds to be tested was added at 50 μL/well, followed by incubating the plate at 37° C. in the presence of 5% CO2 at 37° C. After 3 days of incubation, the supernatant was removed, the cells were washed with PBS(−), and the cell lysis buffer supplied with the SingleShot (registered trademark) Cell Lysis Kit (Bio-Rad) was added dropwise at 50 μL/well to lysis the cells thereby providing the cell lysate.
Human RS virus RNA copy number in the cell lysate was determined by quantitative RT-PCR using iTaq Universal SYBR Green One-Step Kit (Bio-Rad). Specifically, primers targeting human RS virus N gene (Rameix-Welti et al, Nat Commun5: 5104, 2014. doi: 10.1038/ncomms6104) was used to prepare the reaction solution according to the instructions provided with the kit, and a 96-well PikoReal Real-Time PCR System (TCR0096, Thermo Fisher Scientific) was used to detect PCR reaction and signal assay.
The copy number was calculated by the relative method using the comparative Ct method using compound-free virus-infected cells as controls.

Row | IC50 [µM] | SMILES
1 | 10 to 50 | O=S(=O)(C1CCCCC1)N1C[C@H](O)C[C@H]1c1nc(CCCc2ccccc2)no1 [Compound 3B, 3-(3-phenylpropyl)-5-[(2S,4R)-1-cyclohexylsulfonyl-4-hydroxypyrrolidin-2-yl]-1,2,4-oxadiazole]
2 | > 50 | CC(C)CS(=O)(=O)N1C[C@H](O)C[C@H]1c1nc(CCCc2ccccc2)no1 [Compound 3A, 3-(3-phenylpropyl)-5-[(2S,4R)-4-hydroxy-1-isobutylsulfonylpyrrolidin-2-yl]-1,2,4-oxadiazole]
3 | 10 to 50 | CS(=O)(=O)N1CCCC[C@H]1c1nc(CCCc2ccccc2)no1 [Compound 2C, 3-(3-phenylpropyl)-5-[(2S)-1-methanesulfonylpiperidin-2-yl]-1,2,4-oxadiazole]
4 | > 50 | O=S(=O)(c1ccccc1)N1C[C@H](O)C[C@H]1c1nc(CCCc2ccccc2)no1 [Compound 3D, 3-(3-phenylpropyl)-5-[(2S,4R)-1-benzenesulfonyl-4-hydroxypyrrolidin-2-yl]-1,2,4-oxadiazole]

Same assay, conditions: 72 h; Vero cells infected with human RS virus A2 strain, 3 days of incubation, RS virus RNA copy number by quantitative RT-PCR; read-out: Anti-RS virus Activity

Row | IC50 [µM] | SMILES
5 | > 50 | O=C(NCc1noc([C@@H]2CCCCN2S(=O)(=O)C2CCCCC2)n1)c1ccc2c(c1)OCO2 [Compound 21B, (S)—N-((5-(1-(cyclohexylsulfonyl)piperidin-2-yl)-1,2,4-oxadiazol-3-yl)methyl)benzo[d][1,3]dioxol-5-carboxamide]
6 | < 10 | CC(C)(C)OC(=O)N1CC(CS(=O)(=O)N2CC3(CC3)C[C@H]2c2nc(CCCc3ccccc3)no2)C1 [Compound 5AM, tert-buthyl (S)-3-(((6-(3-(3-phenylpropyl)-1,2,4-oxadiazole-5-yl)-5-azaspiro[2.4]heptan-5-yl)sulfonyl)methyl)azetidin-1-carboxylate]
7 | 10 to 50 | O=S(=O)(N1CCOCC1)N1C[C@H](c2ccccc2)C[C@H]1c1nc(CCCc2ccccc2)no1 [Compound 7AE, 4-(((2S,4S)-4-phenyl2-(3-(3-phenylpropyl)-1,2,4-oxadiazole-5-yl)pyrrolidin-1-yl)sulfonyl) morpholine]
8 | < 10 | CS(=O)(=O)N1CC(c2ccccc2)C[C@H]1c1nc(CCCc2ccccc2)no1 (stereo in doubt) [Compound 7C, 3-(3-phenylpropyl)-5-[(2S,4S)-1-methanesulfonyl-4-phenylpyrrolidin-2-yl]-1,2,4-oxadiazole]
9 | 10 to 50 | CC(C)(C)OC(=O)N1[C@@H]2CC[C@@H](C2)[C@H]1c1nnc(CCc2ccncc2)[nH]1 [Compound 25-1, Tert-butyl (1R,3S,4S)-3-(5-(2-(pyridin-4-yl)ethyl)-4H-1,2,4-triazol-3-yl)-2-azabicyclo[2.2.1]heptane-2-carboxylate]
10 | 10 to 50 | CC(C)[C@@H]1CC[C@@H](C)C[C@H]1OC(=O)N1CCC[C@H]1c1nc(CCCc2ccccc2)no1 [Compound 1N, (−)-menthyl (S)-2-(3-(3-phenylpropyl)-1,2,4-oxadiazol-5-yl) pyrrolidine-1-carboxylate]
11 | 10 to 50 | O=C(NCc1cnc2ccccc2c1)N1[C@@H]2CC[C@@H](C2)[C@H]1c1nnc(Cc2c[nH]c3ccccc23)[nH]1 [Compound 24AH]
12 | 10 to 50 | O=C(OC1CCCC1)N1CCC[C@H]1c1nc(CCCc2ccccc2)no1 [Compound 1O, Cyclopentyl (S)-2-(3-(3-phenylpropyl)-1,2,4-oxadiazol-5-yl) pyrrolidine-1-carboxylate]
13 | 10 to 50 | CCN1CCCC[C@H]1c1nc(CCCc2ccccc2)no1 [Compound 2Z, (S)-5-(1-ethylpiperidin-2-yl)-3-(3-phenylpropyl)-1,2,4-oxadiazole]
14 | < 10 | CC(C)CS(=O)(=O)N1CCCC[C@H]1c1nc(CCc2ccncc2)no1 [Compound 12A, (S)-5-(1-(Isobutylsulfonyl)piperidin-2-yl)-3-(2-(pyridin-4-yl)ethyl)-1,2,4-oxadiazole]
15 | 10 to 50 | CS(=O)(=O)N1C[C@H]2CC[C@]1(c1nc(CCc3ccccc3)no1)CC2 [Compound 15C, 5-((1s,4s)-2-(methylsulfonyl)-2-azabicyclo[2.2.2]octan-1-yl)-3-phenethyl-1,2,4-oxadiazole]
16 | < 10 | Fc1ccc(CN2CCC[C@H]2c2nc(CCCc3ccccc3)no2)cc1 [Compound 1V, (S)-5-(1-(4-fluorobenzyl)pyrrolidin-2-yl)-3-(3-phenylpropyl)-1,2,4-oxadiazole]
17 | 10 to 50 | O=S(=O)(N1CCCCC1)N1[C@@H]2CC[C@@H](C2)[C@H]1c1nnc(CCc2ccncc2)[nH]1 [Compound 25AD, (1R,3S,4S)-2-(piperidine-1-ylsulfonyl)-3-(5-(2-(pyridin-4-yl)ethyl)-4H-1,2,4-triazol-3-yl)-2-azabicyclo[2.2.1]heptane]
18 | 10 to 50 | CC(C)(C)OC(=O)N1C[C@H](c2ccccc2)C[C@H]1c1nc(CCc2ccccc2)no1 [Compound C2-7-1, Tert-butyl (2S,4S)-2-(3-phenethyl-1,2,4-oxadiazol-5-yl)-4-phenylpyrrolidine-1-carboxylate]
19 | 10 to 50 | O=S(=O)(C1CCCCC1)N1[C@@H]2CC[C@@H](C2)[C@H]1c1nnc(CCc2ccncc2)[nH]1 [Compound 29B, (1R,3S,4S)-2-(cyclohexylsulfonyl)-3-(5-(2-(pyridin-4-yl)ethyl)-4H-1,2,4-triazol-3-yl)-2-azabicyclo[2.2.1]heptane]
20 | < 10 | O=C(Cc1ccccc1)N1CCCC[C@H]1c1nc(CCCc2ccccc2)no1 [Compound 2P, (S)-2-Phenyl-1-(2-(3-(3-phenylpropyl)-1,2,4-oxadiazol-5-yl)piperidin-1-yl)ethan-1-one]
21 | < 10 | Cc1sc([C@@H]2CCCCN2S(=O)(=O)C2CCCCC2)nc1C(=O)NCc1ccccc1 [Compound 37B, (S)—N-Benzyl-2-(1-(cyclohexylsulfonyl)piperidin-2-yl)-5-methylthiazole-4-carboxamide]
22 | 10 to 50 | O=S(=O)(N1CCOCC1)N1CC2(CC2)C[C@H]1c1nc(CCCc2ccccc2)no1 [Compound 5AE, (S)-4-((6-(3-(3-phenylpropyl)-1,2,4-oxadiazole-5-yl)-5-azaspiro[2.4]heptan-5-yl)sulfonyl)morpholine]
23 | 10 to 50 | CC(C)OC(=O)N1CCC[C@H]1c1nc(CCCc2ccccc2)no1 [Compound 1L, Isopropyl (S)-2-(3-(3-phenylpropyl)-1,2,4-oxadiazol-5-yl) pyrrolidine-1-carboxylate]
24 | > 50 | CC(C)CS(=O)(=O)N1CCCC[C@H]1c1nc(CCc2ccccc2)no1 [Compound 10A, 3-(2-phenylethyl)-5-[(2S)-1-isobutylsulfonylpiperidin-2-yl]-1,2,4-oxadiazole]
25 | < 10 | O=S(=O)(c1ccc(F)cc1)N1C[C@H](F)C[C@H]1c1nc(CCCc2ccccc2)no1 [Compound 8AJ, 5-((2S,4R)-4-fluoro-1-((4-fluorophenyl)sulfonyl)pyrrolidin-2-yl)-3-(3-phenylpropyl)-1,2,4-oxadiazole]
26 | 10 to 50 | O=C(NCc1ccccc1)N1CCC[C@H]1c1nc(CCCc2ccccc2)no1 [Compound 1F, (S)—N-Benzyl-2-(3-(3-phenylpropyl)-1,2,4-oxadiazol-5-yl) pyrrolidine-1-carboxamide]
27 | > 50 | O=S(=O)(c1ccccc1)N1CC2(CC2)C[C@H]1c1nc(CCCc2ccccc2)no1 [Compound 5D, 3-(3-phenylpropyl)-5-{(6S)-5-benzenesulfonyl-5-azaspiro[2.4]hept-6-yl}-1,2,4-oxadiazole]
28 | < 10 | O=S(=O)(c1ccc(F)cc1)N1CC2(CC2)C[C@H]1c1nc(CCCc2ccccc2)no1 [Compound 5AJ, (S)-5-(5-((4-fluorophenyl)sulfonyl)-5-azaspiro[2.4]heptan-6-yl)-3-(3-phenylpropyl)-1,2,4-oxadiazole]
29 | < 10 | CN(C)c1cccc2c(S(=O)(=O)N3C[C@H](c4ccccc4)C[C@H]3c3nc(CCCc4ccccc4)no3)cccc12 [Compound 7AL, N,N-dimethyl-5-(((2S,4S)-4-phenyl2-(3-(3-phenylpropyl)-1,2,4-oxadiazole-5-yl)pyrrolidin-1-yl)sulfonyl)naphthalen-1-amine]
30 | 10 to 50 | O=S(=O)(N1CCCCC1)N1C[C@H](F)C[C@H]1c1nc(CCCc2ccccc2)no1 [Compound 8AD, 5-((2S,4R)-4-fluoro-1-(piperidin-1-ylsulfonyl)pyrrolidin-2-yl)-3-(3-phenylpropyl)-1,2,4-oxadiazole]
31 | < 10 | CC(C)(C)OC(=O)N1C[C@H](c2ccccc2)C[C@H]1c1nc(CCCCCc2ccccc2)no1 [Compound C5-7-1, Tert-butyl (2S,4S)-4-phenyl-2-(3-(5-phenylpentyl)-1,2,4-oxadiazol-5-yl)pyrrolidine-1-carboxylate]
32 | < 10 | CC(C)(C)OC(=O)N1CCCC[C@H]1c1nnc(CCCc2ccccc2)o1 [Compound 18-1, Tert-butyl (S)-2-(5-(3-phenylpropyl)-1,3,4-oxadiazol-2-yl) piperidine-1-carboxylate]

Row | SMILES | IC50 [µM]
33 | CC(C)(C)OC(=O)N1C[C@H](F)C[C@H]1c1nc(CCCc2ccccc2)no1 [Compound 8-1, 3-(3-phenylpropyl)-5-[(2S,4R)-1-tert-butoxycarbonyl-4-fluoropyrrolidin-2-yl]-1,2,4-oxadiazole] | < 10
